The data set is described as follows: Polymorphic stability on storage. It is filed as physicochemical. The conditions noted are these: kept at 40° C.±2° C. and relative humidity 75%±5% for 6 months; samples prepared in examples 1 to 5.

One compound from patent US20110269838A1, “NOVEL PROCESSES AND PURE POLYMORPHS” (priority 2008, published 2011) can be followed below.

For the compound `O=C(CCCCCCC(=O)Nc1ccccc1)NO` [crystalline vorinostat form I, N-hydroxy-N′-phenyl-octanediamide], the “polymorphic stability (conversion over time to other polymorphs)” value is “no conversion over time to other polymorphs”.
